Read-outs that look alike come from different tables or passages of the source.

Test in all cases: Test A postemergence
Common to all, as to format: in vivo

The subject of test [1] is Galium (catchweed bedstraw, Galium aparine). The note with it: Galium, post-emergence, 240 h; for pest or weed control at 125 g/ha: 125 g ai/ha; for pest or weed control at 500 g/ha: 500 g ai/ha. In a few lines: (§1)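 Treatment is preemergence as a directed soil spray after planting, or postemergence at the one- to two-leaf stage, with test chemical in a non-phytotoxic solvent mixture plus surfactant. Plants stay in the greenhouse about 10 d before visual injury scoring on a 0 to 100 scale versus untreated controls.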

In the next test the test system is Kochia (Kochia scoparia). The following applies: Bassia scoparia, post-emergence, 240 h; for pest or weed control at 125 g/ha: 125 g ai/ha; for pest or weed control at 500 g/ha: 500 g ai/ha. Summed up: as §1
Test [2] has as its system blackgrass (Alopecurus myosuroides). The following applies: Alopecurus myosuroides, post-emergence, 240 h; for pest or weed control at 125 g/ha: 125 g ai/ha; for pest or weed control at 500 g/ha: 500 g ai/ha. Summed up:
as §1

The subject of test [3] is wheat (Triticum aestivum). The note with it: Triticum aestivum, post-emergence, 240 h; for plant injury at 125 g/ha: 125 g ai/ha; for plant injury at 500 g/ha: 500 g ai/ha. In a few lines: as §1
The subject of test [4] is ragweed (common ragweed, Ambrosia elatior). The note with it: Ambrosia artemisiifolia, post-emergence, 240 h; for pest or weed control at 125 g/ha: 125 g ai/ha; for pest or weed control at 500 g/ha: 500 g ai/ha. In a few lines:
as §1

The subject of the next test is corn (Zea mays). The note with it: Zea mays, post-emergence, 240 h; for Corn plant response rating (crop injury, 0 = no effect, 100 = complete kill) at 500 g/ha: visual injury, 0 to 100 scale (0 no effect, 100 complete control), approx. 10 d. In a few lines: as §1
Setting [5] is: Postemergence, visual injury, 0 to 100 scale (0 no effect, 100 complete control), approx. 10 d, read-out: Plant response rating, Galium.
Where [6] appears, read: Postemergence, visual injury, 0 to 100 scale (0 no effect, 100 complete control), approx. 10 d, read-out: Plant response rating, Kochia.
The mark [7] stands for this setting: Postemergence, visual injury, 0 to 100 scale (0 no effect, 100 complete control), approx. 10 d, read-out: Plant response rating, Blackgrass.
The mark [8] stands for this setting: Postemergence, visual injury, 0 to 100 scale (0 no effect, 100 complete control), approx. 10 d, read-out: Plant response rating, Wheat.
The mark [9] stands for this setting: Postemergence, visual injury, 0 to 100 scale (0 no effect, 100 complete control), approx. 10 d, read-out: Plant response rating, Ragweed.

Consider `CN1CC[C@H](c2cccc(OC(F)(F)F)c2)[C@@H](C(=O)Nc2cccc(Cl)c2F)C1=O` [Compound 810], for which the pest or weed control at 125 g/ha was found to be 0% in test [1] (postemergence, visual injury rating after approximately 10 d, read-out: Galium plant response rating (0 to 100 scale, 0 no effect, 100 complete control)); 0% in the test on Kochia (Kochia scoparia) (postemergence, visual injury rating after approximately 10 d, read-out: Kochia plant response rating (0 to 100 scale, 0 no effect, 100 complete control)); 0% in test [2] (postemergence, visual injury rating after approximately 10 d, read-out: Blackgrass plant response rating (0 to 100 scale, 0 no effect, 100 complete control)); 0% in test [4] (postemergence, visual injury rating after approximately 10 d, read-out: Ragweed plant response rating (0 to 100 scale, 0 no effect, 100 complete control)). For the same molecule, the pest or weed control at 31 g/ha was 0% in test [1] (Postemergence, 31 g ai/ha, visual injury after approx. 10 d, 0 to 100 scale, 0 no effect, 100 complete control, read-out: Plant response rating, Galium); 0% in the test with Kochia (Kochia scoparia) (Postemergence, 31 g ai/ha, visual injury after approx. 10 d, 0 to 100 scale, 0 no effect, 100 complete control, read-out: Plant response rating, Kochia); 0% in test [2] (Postemergence, 31 g ai/ha, visual injury after approx. 10 d, 0 to 100 scale, 0 no effect, 100 complete control, read-out: Plant response rating, Blackgrass); 0% in test [4] (Postemergence, 31 g ai/ha, visual injury after approx. 10 d, 0 to 100 scale, 0 no effect, 100 complete control, read-out: Plant response rating, Ragweed). Besides, the plant injury at 125 g/ha was determined as 0% in test [3] (postemergence, visual injury rating after approximately 10 d, read-out: Wheat plant response rating (0 to 100 scale, 0 no effect, 100 complete control)) and 0% in the test with corn (Zea mays) (125 g ai/ha, postemergence, visual injury rating after approximately 10 d, read-out: Corn plant response rating (0 to 100 scale, 0 no effect, 100 complete control)). Besides, the plant injury at 31 g/ha in test [3] (Postemergence, 31 g ai/ha, visual injury after approx. 10 d, 0 to 100 scale, 0 no effect, 100 complete control, read-out: Plant response rating, Wheat) is 0%. This molecule also registered a Corn plant response rating (crop injury, 0 = no effect, 100 = complete kill) at 31 g/ha in the test on corn (Zea mays) (Postemergence, 31 g ai/ha, visual injury after approx. 10 d, 0 to 100 scale, 0 no effect, 100 complete control) of 0%.

For the molecule `CN1C[C@H](c2cccc(C(F)(F)F)c2)[C@@H](C(=O)Nc2ccc(F)c(F)c2F)C1=O` [Compound 1389], the pest or weed control at 125 g/ha in test [1] (Postemergence, visual injury after approx. 10 d, 0 to 100 scale, 0 no effect, 100 complete control, read-out: Plant response rating, Galium) is 60%; in the test on Kochia (Kochia scoparia) (Postemergence, visual injury after approx. 10 d, 0 to 100 scale, 0 no effect, 100 complete control, read-out: Plant response rating, Kochia), 60%; in test [2] (Postemergence, visual injury after approx. 10 d, 0 to 100 scale, 0 no effect, 100 complete control, read-out: Plant response rating, Blackgrass) it was 50%; in test [4] (Postemergence, visual injury after approx. 10 d, 0 to 100 scale, 0 no effect, 100 complete control, read-out: Plant response rating, Ragweed), 0%. Also, the pest or weed control at 500 g/ha in test [1] (setting [5]) was determined as 70%; in the test on Kochia (Kochia scoparia) (setting [6]), 80%; in test [2] (setting [7]), 50%; in test [4] (setting [9]), 20%. Also, the plant injury at 125 g/ha in test [3] (Postemergence, visual injury after approx. 10 d, 0 to 100 scale, 0 no effect, 100 complete control, read-out: Plant response rating, Wheat) was determined as 60%. Also, the plant injury at 500 g/ha in test [3] (setting [8]) was found to be 70%. This molecule gave a Corn plant response rating (crop injury, 0 = no effect, 100 = complete kill) at 125 g/ha in the test with corn (Zea mays) (Postemergence, 125 g ai/ha, visual injury after approx. 10 d, 0 to 100 scale, 0 no effect, 100 complete control) of 90%. In the test on corn (Zea mays) (Postemergence, 500 g ai/ha), this molecule came in with a Corn plant response rating (crop injury, 0 = no effect, 100 = complete kill) at 500 g/ha of 90%.

As for `COc1ccc([C@H]2CN(C)C(=O)[C@@H]2C(=O)Nc2ccccc2F)c(OC)c1` [Compound 1215], the pest or weed control at 125 g/ha in test [1] (postemergence, visual injury vs untreated controls after approx. 10 d, 0 = no effect, 100 = complete control, read-out: Galium plant response rating (0 to 100 scale)) was 0%; in the test on Kochia (Kochia scoparia) (postemergence, visual injury vs untreated controls after approx. 10 d, 0 = no effect, 100 = complete control, read-out: Kochia plant response rating (0 to 100 scale)), 0%; in test [2] (postemergence, visual injury vs untreated controls after approx. 10 d, 0 = no effect, 100 = complete control, read-out: Blackgrass plant response rating (0 to 100 scale)), 0%; in test [4] (postemergence, visual injury vs untreated controls after approx. 10 d, 0 = no effect, 100 = complete control, read-out: Ragweed plant response rating (0 to 100 scale)), 0%. Also, the pest or weed control at 500 g/ha in test [1] (postemergence, 0 to 100 scale, 0 is no effect, 100 is complete control, read-out: Galium plant response rating) came out at 0%; in the test on Kochia (Kochia scoparia) (postemergence, 0 to 100 scale, 0 is no effect, 100 is complete control, read-out: Kochia plant response rating) it was 30%; in test [2] (postemergence, 0 to 100 scale, 0 is no effect, 100 is complete control, read-out: Blackgrass plant response rating), 0%; in test [4] (postemergence, 0 to 100 scale, 0 is no effect, 100 is complete control, read-out: Ragweed plant response rating), 0%. Further, the plant injury at 125 g/ha in test [3] (postemergence, visual injury vs untreated controls after approx. 10 d, 0 = no effect, 100 = complete control, read-out: Wheat plant response rating (0 to 100 scale)) was determined as 0%; in the test with corn (Zea mays) (125 g ai/ha, postemergence, visual injury vs untreated controls after approx. 10 d, 0 = no effect, 100 = complete control, read-out: Corn plant response rating (0 to 100 scale)) it was 0%. Moreover, the plant injury at 500 g/ha in test [3] (postemergence, 0 to 100 scale, 0 is no effect, 100 is complete control, read-out: Wheat plant response rating) amounted to 0%; in the test on corn (Zea mays) (500 g ai/ha, postemergence, 0 to 100 scale, 0 is no effect, 100 is complete control, read-out: Corn plant response rating), 0%.

Consider `CN1C[C@H](c2cccc(C(C)(F)F)c2)[C@@H](C(=O)Nc2ccccc2S(C)(=O)=O)C1=O` [Compound 1318], for which the pest or weed control at 125 g/ha in test [1] (Postemergence, visual rating about 10 d after treatment, read-out: Galium plant response rating (0 to 100 scale)) is 60%; in the test on Kochia (Kochia scoparia) (Postemergence, visual rating about 10 d after treatment, read-out: Kochia plant response rating (0 to 100 scale)), 0%; in test [2] (Postemergence, visual rating about 10 d after treatment, read-out: Blackgrass plant response rating (0 to 100 scale)) it was 70%; in test [4] (Postemergence, visual rating about 10 d after treatment, read-out: Ragweed plant response rating (0 to 100 scale)) it was 10%. The pest or weed control at 500 g/ha worked out at 60% in test [1] (setting [5]), 40% in the test on Kochia (Kochia scoparia) (setting [6]), 70% in test [2] (setting [7]) and 60% in test [4] (setting [9]). Also, the plant injury at 125 g/ha turned out to be 50% in test [3] (Postemergence, visual rating about 10 d after treatment, read-out: Wheat plant response rating (0 to 100 scale)) and 60% in the test on corn (Zea mays) (125 g ai/ha, Postemergence, visual rating about 10 d after treatment, read-out: Corn plant response rating (0 to 100 scale)). Further, in test [3] (setting [8]), the plant injury at 500 g/ha came out at 80%. Further, the Corn plant response rating (crop injury, 0 = no effect, 100 = complete kill) at 500 g/ha in the test with corn (Zea mays) (Postemergence, 500 g ai/ha) stood at 80%.

These data come from patent publication US12077503B2, “Substituted cyclic amides and their use as herbicides” (FMC CORPORATION, priority 2015, dated 2024).
